Reference: patent US8722910B2, “Diyne compositions” (Evolva AG, priority 2009, dated 2014)
≈ marks a conversion by molar mass, not a printed value. Where two headings read alike, the source gives them in different places.

Columns and labels:
[1] = tested on: C. albicans; assay: Susceptibility of clinical isolates (MIC, broth dilution); assay type: cell-based; details: Candida albicans; C. albicans (n = 20); M27-A3, 24 hrs; read at 50% inhibition (potassium salt, Voriconazole), 100% (Amphotericin), MEC (Caspofungin); read-out: MIC90
Protocol: (§1) The efficacy of compound IV″ was investigated on 563 clinical isolates of 33 human fungal pathogens. […] For species with n≧10, the MIC90 (MIC, minimal inhibitory concentration) is given as ng/ml. For species with n≦10, the MIC range is given as ng/ml. 24 h and 48 h reads are indicated (Table 1).
(§2) The in vitro efficacy of antifungal compounds is determined in susceptibility assays, which are indicative for the spectrum and potency of a compound. Susceptibilities are reported as minimal inhibitory concentrations (MIC, as ng/ml or μg/ml) required to inhibit growth to a defined degree compared to the drug free control. The MIC90 defines the MIC required to inhibit growth for ≧90% of the strains of a population tested.
(§3) The MIC90 was calculated for the indicated species.

[2] = tested on: C. dubliniensis; assay: as above; assay type: cell-based; details: Candida dubliniensis; C. dubliniensis (n = 25); M27-A3, 24 hrs; read at 50% inhibition (potassium salt, Voriconazole), 100% (Amphotericin), MEC (Caspofungin); read-out: MIC90
Protocol: as §1, §2, §3

[3] = tested on: C. glabrata; assay: as above; assay type: cell-based; details: Nakaseomyces glabratus; C. glabrata (n = 25); M27-A3, 24 hrs; read at 50% inhibition (potassium salt, Voriconazole), 100% (Amphotericin), MEC (Caspofungin); read-out: MIC90
Protocol: as §1, §2, §3

[4] = tested on: C. krusei; assay: as above; assay type: cell-based; details: Pichia kudriavzevii; C. krusei (n = 27); M27-A3, 24 hrs; read at 50% inhibition (potassium salt, Voriconazole), 100% (Amphotericin), MEC (Caspofungin); read-out: MIC90
Protocol: as §1, §2, §3

[5] = tested on: C. lusitaniae; assay: as above; assay type: cell-based; details: Clavispora lusitaniae; C. lusitaniae (n = 24); M27-A3, 24 hrs; read at 50% inhibition (potassium salt, Voriconazole), 100% (Amphotericin), MEC (Caspofungin); read-out: MIC90
Protocol: as §1, §2, §3

[6] = tested on: C. parapsilosis; assay: as above; assay type: cell-based; details: Lodderomyces parapsilosis; C. parapsilosis (n = 37); M27-A3, 24 hrs; read at 50% inhibition (potassium salt, Voriconazole), 100% (Amphotericin), MEC (Caspofungin); read-out: MIC90
Protocol: as §1, §2, §3

[7] = tested on: C. tropicalis; assay: as above; assay type: cell-based; details: Candida tropicalis; C. tropicalis (n = 35); M27-A3, 24 hrs; read at 50% inhibition (potassium salt, Voriconazole), 100% (Amphotericin), MEC (Caspofungin); read-out: MIC90
Protocol: as §1, §2, §3

[8] = tested on: C. albicans, Fluconazole, Voriconazole, Itraconazole and/or Caspofungin resistant isolates; assay: Susceptibility of resistant clinical isolates (MIC, broth dilution); assay type: cell-based; details: Candida albicans; C. albicans resistant (n = 20): isolates resistant to Fluconazole, Itraconazole and Caspofungin; read-out: MIC90
[9] = tested on: C. glabrata, Fluconazole, Voriconazole, Itraconazole and/or Caspofungin resistant isolates; assay: as above; assay type: cell-based; details: Nakaseomyces glabratus; C. glabrata resistant (n = 21): isolates resistant to Fluconazole, Itraconazole, Voriconazole and Caspofungin; read-out: MIC90
Protocol: as §1, §3

[10] = tested on: A. flavus; assay: Susceptibility of clinical Aspergillus isolates (MIC); assay type: cell-based; details: Aspergillus flavus; A. flavus (n = 2); CLSI M38-A2; 50% growth inhibition; 24 h; read-out: MIC50
Protocol: as §1
(§4) Susceptibilities were determined according to the CLSI reference method M38-A2.

[11] = tested on: A. fumigatus; assay: as above; assay type: cell-based; details: Aspergillus fumigatus; A. fumigatus (n = 20); CLSI M38-A2; 50% growth inhibition; 24 h; read-out: MIC50
Protocol: as §1, §4

[12] = tested on: A. nidulans; assay: as above; assay type: cell-based; details: A. nidulans (n = 3), CLSI M38-A2, 50% growth inhibition, 24 h, read-out: MIC50
Protocol: as §1, §4

[13] = tested on: A. niger; assay: as above; assay type: cell-based; details: A. niger (n = 6), CLSI M38-A2, 50% growth inhibition, 24 h, read-out: MIC50
Protocol: as §1, §4

[14] = tested on: A. terreus; assay: as above; assay type: cell-based; details: Aspergillus terreus; A. terreus (n = 5); CLSI M38-A2; 50% growth inhibition; 24 h; read-out: MIC50
Protocol: as §1, §4

[15] = tested on: A. versicolor; assay: as above; assay type: cell-based; details: Aspergillus versicolor; A. versicolor (n = 3); CLSI M38-A2; 50% growth inhibition; 24 h; read-out: MIC50
Protocol: as §1, §4

[16] = tested on: Coccidioides spp.; assay: microbe, parasite or virus in culture; assay type: cell-based; details: Coccidioides, 48 h
[17] = tested on: B. dermatitidis; assay: Susceptibility of clinical dimorphic fungi (MIC); assay type: cell-based; details: Blastomyces dermatitidis; B. dermatitidis (n = 30); CLSI M38-A2; 50% growth reduction; MIC read at 96 h
[18] = tested on: H. capsulatum; assay: microbe, parasite or virus in culture; assay type: cell-based; details: Histoplasma capsulatum, 120 h
[19] = tested on: Candida albicans; assay: In vitro fungicidal activity vs. Candida albicans; details: Candida albicans
[20] = tested on: C. albicans; assay: Fatty acid competition (antagonism) in 96-well plates; details: 48 h

## C[C@@H]1[C@H](O)[C@@H](C)/C=C/C=C/C=C/C=C/C=C/C=C/C=C/[C@H](O[C@@H]2O[C@H](C)[C@@H](O)[C@H](N)[C@@H]2O)C[C@@H]2O[C@](O)(C[C@@H](O)C[C@@H](O)[C@H](O)CC[C@@H](O)C[C@@H](O)CC(=O)O[C@H]1C)C[C@H](O)[C@H]2C(=O)O [Amphotericin B]
[1]
  MIC90: 0.5 mg/L
[2]
  MIC90: 1 mg/L
[3]
  MIC90: 2 mg/L
[4]
  MIC90: 4 mg/L
[5]
  MIC90: 1 mg/L
[6]
  MIC90: 0.5 mg/L
[7]
  MIC90: 1 mg/L
[8]
  MIC90: 0.5 mg/L (≈ 0.541 µM)
[9]
  MIC90: 2 mg/L (≈ 2.16 µM)
[10]
  MIC50: 2 mg/L (≈ 2.16 µM)
[11]
  MIC50: 0.5 mg/L (≈ 0.541 µM)
[12]
  MIC50: 2 mg/L (≈ 2.16 µM)
[13]
  MIC50: 1 mg/L (≈ 1.08 µM)
[14]
  MIC50: 2 mg/L (≈ 2.16 µM)
[15]
  MIC50: 2 mg/L (≈ 2.16 µM)
[16]
  MIC90: 0.5 mg/L (≈ 0.541 µM)
[17]
  MIC90: 0.25 mg/L (≈ 0.271 µM)
[18]
  MIC90: 0.125 mg/L (≈ 0.135 µM)
[19]
  Fungicidal Concentration: 800 ng/mL
[19]; 24 h, read-out: MIC90 24 h
  MIC90: 0.2 mg/L (≈ 0.216 µM)
[19]; 48 h, read-out: MIC90 48 h
  MIC90: 0.8 mg/L (≈ 0.866 µM)
[20]
  effect of oleic acid / stearic acid on susceptibility: oleic acid did not decrease the susceptibility
